{"source": "patent US10857128B2", "about": "“Methods and compositions for treating inflammatory diseases” (Helmholtz Zentrum München Deutsches Forschungszentrum für …, priority 2017, dated 2020)", "key": {"gut microbiota": {"system": "gut microbiota", "assay": "Gut microbial diversity by 16S rRNA barcoding of caecum samples", "type": "in vivo, Balb/c mice", "method": "Bacterial 16S rRNA gene amplification and diversity analysis. Diversity analysis of 16S rRNA genes was performed by amplicon sequencing. In the first PCR reaction, bacterial genomic DNA was subjected to 16S rRNA gene amplifications using the primer S-D-Bact-0785-a-S-18 [5′-GGMTTAGATACCCBDGTA-3′] (SEQ ID NO: 1) and S-*-Univ-1100-a-A-15 [5′-[…]-3′] (SEQ ID NO: 2) as already mentioned. The reaction mixture of 25 μL in total was composed of 5 ng×μL-1 template DNA, 10 μM of each primer, 10 mM dNTPs (Fermentas, Vilnius, Lithuania), 5% of dimethyl sulfoxide (Sigma-Aldrich, St. Louis, USA), 5 U×μL-1 of FastStart High Fidelity Polymerase (Roche Diagnostics, Mannheim, Germany), 10× FastStart Buffer, and nuclease-free water (Life Technologies, Carlsbad, Calif., USA). The PCR started with an initialization at 95° C. for 5 min, followed by 28 cycles of denaturation at 94° C. for 45 sec, annealing at 44° C. for 45 sec, and elongation at 72° C. for 45 sec. A final elongation step at 72° C. for 5 min completed the PCR reaction. To minimize contamination with primer dimers, generated fragments were cut out of the gel after standard agarose gel electrophoresis and purified with the NucleoSpin Gel and PCR Clean-up Kit (Macherey-Nagel, Düren, Germany).\nDuring the second PCR, Illumina sequencing adapters as well as dual indices were attached to the purified amplicons using the Nextera XT Index Kit (Illumina, San Diego, Calif., USA). The reaction volume was 50 μL in total and contained 5 μL of genomic DNA, 5 μL of each Nextera XT Index Primer, 25 μl 2× KAPA HiFi HotStart ReadyMix (Kapa Biosystems, Wilmington, Mass., USA), and 10 μL of nuclease-free water (Life Technologies, Carlsbad, Calif., USA). The PCR reaction was performed according to the following thermal profile: 95° C. for 3 min, followed by 8 cycles of 95° C. for 30 sec, 55° C. for 30 sec, 72° C. for 30 sec, and finalized by 72° C. for 5 min. The PCR products were cleaned up with the Agencourt AMPure XP system (Beckman Coulter, Brea, Calif., USA), DNA was quantified and the DNA quality was controlled using the 2100 Bioanalyzer Instrument (Agilent Technologies, Santa Clara, Calif., USA), and sequenced with the MiSeq instrument (Illumina, San Diego, Calif., USA).\nFor testing prevention of AAI, mice received 50 mM D-tryptophan starting at least three days before the first sensitization until sacrificing on day 25. For microbiome analyses, the caecum was cut off and immediately stored at −80° C. until further processing.\nMicrobial Diversity. Bacterial diversity was assessed by molecular barcoding of 16S rRNA genes in caecum samples of six animals per group. To this end, DNA was directly extracted from the caecum using a kit based protocol (PowerSoil DNA Isolation Kit, MO BIO Laboratories, Carlsbad, Calif., USA). 315 bp fragments were amplified within the variable region V5 and V6 of the 16S rRNA gene using S-D-Bact-0785-a-S-18[5′-GGMTTAGATACCCBDGTA-3′] (SEQ ID NO: 1) and S-*-Univ-1100-a-A-15 [5′-[…]-3′] (SEQ ID NO: 2) as primers (Klindworth et al., Nucleic Acids Res. 2013 Jan. 7; 41(1):el). Sequencing of amplicons was performed on the Illumina MiSeq platform (Illumina, San Diego, Calif., USA) using paired end technology (see section “Bacterial 16S rRNA gene amplification and diversity analysis” herein). Sequences are deposited in NCBI accession number PRJNA304109.\nReads were analyzed with the software package QIIME. Operational taxonomic units (OTUs) were picked within the 13_8 version of the Greengenes reference database (McDonald et al., ISME J. 2012 March; 6(3):610-8) at a similarity level of 95% sequence identity. Sequences were subsampled to 15000 reads per sample, which reflects the number of reads obtained in the sample with the lowest number of reads after quality control. This number was still sufficient to reach a plateau when collectors' curves were calculated on the basis of OTU95. […]"}, "[1]": {"assay": "Oral supplementation of mice with D-tryptophan in drinking water: serum levels and tolerability", "type": "in vivo, Balb/c mice", "settings": "14 days", "method": "Enantiomeric separation of D-Tryptophan in murine sera. The investigator (C.M.) was blinded to the murine intervention groups. Due to the abundance of interfering proteins a protein precipitation was done. For this purpose the sera were thawed on ice and 20 μL of each sample were vigorously shaken with 80 μL 4° C. methanol (Chromasolve, Fluka, St. Louis, USA) and centrifuged (15,000×g at 4° C. for 15 min). The supernatants were taken, evaporated and resolved in water before injection. The derivation was performed as described for bacterial supernatants with some modifications as recently published (Müller et al., J Chromatogr A. 2014 Jan. 10; 1324:109-14). For quantification human serum was spiked with different concentrations (0.005-0.15 μg/mL) of D-Tryptophan and randomly analyzed.\nAnimals and oral supplementation with D-tryptophan. […]"}}}
{"smiles": "N[C@H](Cc1c[nH]c2ccccc12)C(=O)O", "note": "[D-tryptophan]", "values": [{"measurement": "impact on microbial community composition", "setting": "gut microbiota; AAI mice", "value": "significant"}, {"measurement": "abundance of Ruminococcaceae", "setting": "gut microbiota; AAI mice with D-Trp", "value": 8.9, "unit": "%"}, {"measurement": "bacterial diversity (alpha-diversity) of AAI mice", "setting": "gut microbiota; AAI mice, 50 mM in drinking water", "value": "increased"}, {"measurement": "abundance of Rikenellaceae", "setting": "gut microbiota; D-Trp groups", "value": "1.1-2.0%"}, {"measurement": "abundance of Lachnospiraceae", "setting": "gut microbiota; D-tryptophan treated AAI mice", "value": 20.6, "unit": "%"}, {"measurement": "abundance of Lachnospiraceae", "setting": "gut microbiota; D-tryptophan treated mice without AAI", "value": 27.5, "unit": "%"}, {"measurement": "relative abundance of Odoribacteraceae", "setting": "gut microbiota; both groups of supplemented animals", "value": 3.9, "unit": "%"}, {"measurement": "members of the S24-7 family", "setting": "gut microbiota; mouse, in vivo", "value": "neither affected"}, {"measurement": "changes in behavior or body weight", "setting": "[1]; 1.8 or 18 mg/dL in drinking water, compared to controls", "value": "No changes"}, {"measurement": "D-tryptophan serum levels", "setting": "[1]; oral 0.9 mg/day in drinking water", "value": "increased D-tryptophan serum levels significantly"}]}
